Assay results published in patent US20210015850A1, “COMPOSITION FOR IMPROVING INTESTINAL BARRIER FUNCTION” (SUNTORY HOLDINGS LIMITED, priority 2017, published 2021).

What follows are compounds tested on Caco-2 cells (assay: Intestinal barrier function improvement: suppression of cytokine-induced TEER reduction in Caco-2 monolayer). Conditions: 10 μM; gallate vs non-gallate in the same evaluation.
Format: cell-based, human
Protocol: Caco-2 cells were cultured for three weeks at 37° C. in Transwell (manufactured by Millicell Corporation) using DMEM (Dulbecco's modified Eagle's medium). A medium was removed from a plate of cultured Caco-2 cells, and the well was washed 3 times with serum-free DMEM. The well was filled with the medium. Then, the transepithelial electrical resistance (TEER) of Caco-2 monolayer cells was measured by Millicell-ERS (manufactured by Millipore Corporation). Cells (TEER≥1000 Ω·cm^2) determined that a sufficient tight junction was formed were selected, and used for the next screening. Then, to test solutions (media) on both apical and basolateral membrane sides, a sample, TNFα (40 ng/mL), IL-1β (20 ng/mL), and IFNγ (10 ng/mL) were added, followed by cultivating for 48 hours. The sample was dissolved in dimethyl sulfoxide (DMSO), and the solution was then added to the test solutions. In this case, a well to which inflammatory cytokine (TNFα, IL-1β, and IFNγ) and the sample were not added was provided as normal. A well to which inflammatory cytokine was added and the sample was not added was provided as control. After the cultivation, TEER was measured again, to evaluate whether the sample suppressed the reduction (decrease) of TEER due to the inflammatory cytokine.
The TEER reduction suppression ratio (%) due to the sample was determined according to the following formula from the TEER values of the well to which the sample was added, normal, and control.
TEER reduction suppression ratio (%)−100×((TEER of well to which sample is added)−(TEER of control))/((TEER of normal)−(TEER of control))
In this evaluation system, as the TEER reduction suppression ratio (%) is higher, an intestinal barrier function improvement effect is higher.
The intestinal barrier function improvement action was evaluated by the same method (the method for evaluating intestinal barrier function improvement action described in Example 4) as that in Example 4. In Example 5, the sample was added into the test solution so that a sample concentration was set to 10 μmol/L. The TEER reduction suppression ratio (%) of the sample was obtained according to the formula from the TEER values of a well to which the sample was added, normal, and control in the same manner as in Example 4.

| Compound | Relative value of TEER reduction suppression ratio of gallate type compound (non-gallate type compound taken as 1) |
| --- | --- |
| O=C(O[C@@H]1Cc2c(O)cc(O)cc2O[C@@H]1c1ccc(O)c(O)c1)c1cc(O)c(O)c(O)c1 [Epicatechin gallate] | 2.5 |
| O=C(O[C@@H]1Cc2c(O)cc(O)cc2O[C@H]1c1cc(O)c(O)c(O)c1)c1cc(O)c(O)c(O)c1 [Gallocatechin gallate] | 3.2 |

Same assay, conditions: Homo sapiens, Caco-2, 48 h; sample 10 μM (10 μmol/L); Example 5, Table 4; read-out: TEER reduction suppression ratio (%)

| Compound | inhibition at 10 µM |
| --- | --- |
| O=C(OC[C@H]1O[C@@H](O)[C@H](OC(=O)c2cc(O)c(O)c(O)c2)[C@@H](OC(=O)c2cc(O)c(O)c(O)c2)[C@@H]1OC(=O)c1cc(O)c(O)c(O)c1)c1cc(O)c(O)c(O)c1 [2,3,4,6-tetra-O-galloyl-β-D-glucose] | 93% |
| O=c1c(O)c(-c2ccc(O)c(O)c2)oc2cc(O)cc(O)c12 [quercetin, reference compound] | 38% |
| O=C(O)c1cc(O)c(O)c(O)c1Oc1cc2c(c(O)c1O)-c1c(cc(O)c(O)c1O)C(=O)O[C@@H]1C(COC2=O)OC(O)C2OC(=O)c3cc(O)c(O)c(O)c3-c3c(cc(O)c(O)c3O)C(=O)O[C@H]21 (some centres unmarked) [Praecoxin A] | 74% |
| O=C(OC[C@H]1O[C@@H](OC(=O)c2cc(O)c(O)c(O)c2)[C@H](O)[C@@H](O)[C@@H]1OC(=O)c1cc(O)c(O)c(O)c1)c1cc(O)c(O)c(O)c1 [1,4,6-tri-O-galloyl-β-D-glucose] | 56% |
| O=C(OC[C@H]1O[C@@H](OC(=O)c2cc(O)c(O)c(O)c2)[C@H](OC(=O)c2cc(O)c(O)c(O)c2)[C@@H](OC(=O)c2cc(O)c(O)c(O)c2)[C@@H]1OC(=O)c1cc(O)c(O)c(O)c1)c1cc(O)c(O)c(O)c1 [1,2,3,4,6-penta-O-galloyl-β-D-glucose] | 64% |
| O=C1O[C@H]2[C@@H]3OC(=O)c4cc(O)c(O)c(O)c4-c4c(cc(O)c(O)c4O)C(=O)OC[C@H]2O[C@@H](OC(=O)c2cc(O)c(O)c(O)c2)[C@@H]3OC(=O)c2cc(O)c(O)c3c2[C@@H]2C1=CC(=O)[C@](O)(O3)C2(O)O [Geranlin, geraniin] | 83% |
| O=C(OC[C@H]1O[C@@H](OC(=O)c2cc(O)c(O)c(O)c2)[C@H](OC(=O)c2cc(O)c(O)c(O)c2)[C@@H](O)[C@@H]1OC(=O)c1cc(O)c(O)c(O)c1)c1cc(O)c(O)c(O)c1 [1,2,4,6-tetra-O-galloyl-β-D-glucose] | 80% |
| O=C(OC[C@H]1O[C@@H](OC(=O)c2cc(O)c(O)c(O)c2)[C@H](OC(=O)c2cc(O)c(O)c(O)c2)[C@@H](OC(=O)c2cc(O)c(O)c(O)c2)[C@@H]1O)c1cc(O)c(O)c(O)c1 [1,2,3,6-tetra-O-galloyl-β-D-glucose] | 98% |
| O=C1OC[C@H]2OC(O)[C@@H]3OC(=O)c4cc(O)c(O)c(O)c4-c4c(cc(O)c(O)c4O)C(=O)O[C@H]3[C@@H]2OC(=O)c2cc(O)c(O)c(O)c2-c2c1cc(O)c(O)c2O (some centres unmarked) [Pedunculagin] | 72% |
| O=C(O[C@@H]1COC(=O)c2cc(O)c(O)c(O)c2-c2c(cc(O)c(O)c2O)C(=O)O[C@H]1[C@@H]1OC(=O)c2cc(O)c(O)c(O)c2-c2c(O)c(O)c(O)c3c2C(=O)O[C@H]1[C@@H]3O)c1cc(O)c(O)c(O)c1 [Casuarinin] | 82% |

Same assay, conditions: Homo sapiens, Caco-2; sample 10 μM; TNFα 40 ng/mL, IL-1β 20 ng/mL, IFNγ 10 ng/mL; 48 hours; Table 2; read-out: TEER reduction suppression ratio (%)

| Compound | inhibition at 10 µM |
| --- | --- |
| O=C(O[C@@H]1Cc2c(O)cc(O)cc2O[C@@H]1c1ccc(O)c(O)c1)c1cc(O)c(O)c(O)c1 [Epicatechin gallate] | 35% |
| Oc1cc(O)c2c(c1)O[C@H](c1cc(O)c(O)c(O)c1)[C@@H](O)C2 [Gallocatechin, reference compound] | 19% |
| Oc1cc(O)c2c(c1)O[C@H](c1ccc(O)c(O)c1)[C@H](O)C2 [Epicatechin, reference compound] | 14% |
| O=C(O[C@@H]1Cc2c(O)cc(O)cc2O[C@H]1c1cc(O)c(O)c(O)c1)c1cc(O)c(O)c(O)c1 [Gallocatechin gallate] | 60% |

Same assay, conditions: sample 10 μM (10 μmol/L); Example 5, Table 4

| Compound | TEER reduction suppression ratio (%) |
| --- | --- |
| O=C(O[C@H]1COC(=O)c2cc(O)c(O)c(O)c2-c2c(cc(O)c(O)c2O)C(=O)O[C@H]1C1OC(=O)c2cc(O)c(O)c(O)c2-c2c(O)c(O)c(O)c3c2C(=O)O[C@H]1[C@@H]3c1c(O)cc(O)c2c1OC(c1ccc(O)c(O)c1)C(O)C2)c1cc(O)c(O)c(O)c1 (some centres unmarked) [Stenophyllanin A, stenophyllanin A] | 96% |
| O=C(O[C@H]1[C@@H]2OC(=O)c3cc(O)c(O)c(O)c3-c3c(cc(O)c(O)c3O)C(=O)OC[C@H]2OC(O)[C@@H]1OC(=O)c1cc(O)c(O)c(O)c1)c1cc(O)c(O)c(O)c1 (some centres unmarked) [Tellimagrandin I, tellimagrandin I] | 65% |
| stenophyllanin B | 126% |

Same assay, conditions: sample 10 μM; TNFα 40 ng/mL, IL-1β 20 ng/mL, IFNγ 10 ng/mL; 48 hours; Table 2

| Compound | TEER reduction suppression ratio (%) |
| --- | --- |
| Catechin [reference compound] | 15% |
